Test [1] concerns MDA-MB-436 cells. The experiment in a line: Inhibition of proliferation of human breast cancer MDA-MB-436 cell line (CCK-8, 7 days). The following applies: Homo sapiens, 168 h, proliferation of MDA-MB-436, 7 days. Type of test: cell-based. The method in brief:
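Cells seeded at 3000/well were treated next day with 8 serial doses (DMSO control) for 7 days at 37° C., 5% CO2, with compound medium changed on day four. CCK-8 was added for 4 hours and OD read as 450 nm minus 650 nm. IC50 came from a sigmoidal fit of survival relative to DMSO.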

The target in test [2] is PARP1 (Homo sapiens, UniProt P09874). Put plainly: PARP1 chemiluminescent assay. Type of test: biochemical. The following applies: recombinant PARP1 enzyme activity, chemiluminescence. The protocol:
(§1) Mix the solution of recombinant poly ADP ribotransferase 1 and 2 (PARP1 and PARP2) (40 ng enzyme/well) and the compounds to be tested, respectively. And then added to a 96-well plate coated with […] mixture, incubated at room temperature for 1 h. Then add 50 μL 0.3 ng/mL Streptavidin-HRP to each well. The plates were incubated for 30 minutes at room temperature. Finally, the plates were treated with streptavidin-HRP followed by addition of the ELISA ECL substrate to produce chemiluminescence that can then be measured using a chemiluminescence reader. The inhibition rate of the compound to PARP1/2 enzyme activity was calculated according to the following formula. [formula] IC50 value is obtained by fitting the s-shaped dose response curve equation by using XL Fit software. The curve equation is Y=100/(1+10^(log C−log IC50)), C is the compound concentration. Table 1 summarizes the inhibitory effects of compounds on PARP1 and PARP2 enzyme activity (IC50), wherein +++++ indicates IC50≤1 nM; ++++ indicates 1<IC50≤10 nM; +++ indicates 10 nM<IC50≤100 nM: ++ indicates 100 nM<IC50≤1 μM; + indicates IC50>1 μM.

The target of test [3] is PARP2 (Homo sapiens, UniProt Q9UGN5). The experiment in a line: PARP2 chemiluminescent assay. Type of test: biochemical. The following applies: recombinant PARP2 enzyme activity, chemiluminescence. How it is done:
as §1

Chain of PARP1 (P09874 whole entry): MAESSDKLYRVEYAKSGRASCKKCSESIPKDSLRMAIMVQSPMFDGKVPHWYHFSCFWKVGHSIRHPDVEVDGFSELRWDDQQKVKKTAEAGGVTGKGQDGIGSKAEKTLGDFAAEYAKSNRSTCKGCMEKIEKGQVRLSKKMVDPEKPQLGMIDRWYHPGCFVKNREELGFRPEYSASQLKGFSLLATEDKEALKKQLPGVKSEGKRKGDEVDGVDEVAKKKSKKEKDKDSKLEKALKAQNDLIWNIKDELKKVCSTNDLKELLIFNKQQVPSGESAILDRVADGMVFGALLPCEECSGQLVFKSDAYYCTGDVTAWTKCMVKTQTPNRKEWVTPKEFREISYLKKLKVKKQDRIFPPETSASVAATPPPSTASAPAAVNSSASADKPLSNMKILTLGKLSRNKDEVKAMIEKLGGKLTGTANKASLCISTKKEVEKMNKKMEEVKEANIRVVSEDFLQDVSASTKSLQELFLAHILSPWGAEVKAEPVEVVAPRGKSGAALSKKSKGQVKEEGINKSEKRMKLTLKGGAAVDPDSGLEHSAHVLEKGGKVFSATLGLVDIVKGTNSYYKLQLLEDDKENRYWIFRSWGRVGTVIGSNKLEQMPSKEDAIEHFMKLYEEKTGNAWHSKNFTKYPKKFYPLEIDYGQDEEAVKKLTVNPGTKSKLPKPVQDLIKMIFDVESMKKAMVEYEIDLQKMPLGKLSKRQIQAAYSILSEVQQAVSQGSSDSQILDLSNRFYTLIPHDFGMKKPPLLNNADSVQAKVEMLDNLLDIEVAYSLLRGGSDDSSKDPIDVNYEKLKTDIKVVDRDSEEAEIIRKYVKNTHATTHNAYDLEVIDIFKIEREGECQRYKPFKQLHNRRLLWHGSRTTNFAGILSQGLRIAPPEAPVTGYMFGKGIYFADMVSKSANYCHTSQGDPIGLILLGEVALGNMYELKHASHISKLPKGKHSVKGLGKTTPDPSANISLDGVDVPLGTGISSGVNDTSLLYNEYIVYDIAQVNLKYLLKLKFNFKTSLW
Chain of PARP2 (Q9UGN5 whole entry, species assumed): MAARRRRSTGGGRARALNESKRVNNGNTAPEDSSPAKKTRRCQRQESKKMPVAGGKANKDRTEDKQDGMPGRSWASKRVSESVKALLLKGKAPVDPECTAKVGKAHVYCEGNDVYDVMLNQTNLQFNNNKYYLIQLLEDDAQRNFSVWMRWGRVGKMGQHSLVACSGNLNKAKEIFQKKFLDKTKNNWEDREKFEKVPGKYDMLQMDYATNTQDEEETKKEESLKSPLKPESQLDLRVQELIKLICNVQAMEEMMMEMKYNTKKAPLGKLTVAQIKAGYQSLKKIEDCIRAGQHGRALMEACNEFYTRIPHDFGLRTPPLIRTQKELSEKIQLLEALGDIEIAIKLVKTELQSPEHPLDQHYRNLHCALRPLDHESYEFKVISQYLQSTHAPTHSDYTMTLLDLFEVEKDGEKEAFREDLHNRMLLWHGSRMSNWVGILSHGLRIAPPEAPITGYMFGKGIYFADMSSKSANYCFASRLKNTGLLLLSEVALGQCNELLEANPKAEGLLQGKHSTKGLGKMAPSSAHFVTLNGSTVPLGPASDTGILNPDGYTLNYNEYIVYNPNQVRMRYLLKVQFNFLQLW

The term IC50 denotes the midpoint of a concentration-inhibition curve. For `CCn1c(=O)[nH]c2cc(CN3CCN(c4ccc(C(=O)NC)nc4)CC3)ccc21` [Example 16, 5-(4-((1-ethyl-2-oxo-2,3-dihydro-1H-benzo[d]imidazol-5-yl)methyl)piperazin-1-yl)-N-methylpicolinamide], the IC50 in test [1], in test [2] and in test [3] was > 1000 nM each time.
`CCCn1c(=O)[nH]c2cc(CN3CCN(c4ccc(C(=O)NC)nc4F)CC3)ccc2c1=O` [Example 19, 5-(4-((2,4-dioxo-3-propyl-1,2,3,4-tetrahydroquinazolin-7-yl)methyl)piperazin-1-yl)-6-fluoro-N-methylpicolinamide]: the IC50 in test [1] was 10 to 100 nM; in test [2], 1 to 10 nM; in test [3], > 1000 nM.
For `CCN1Cc2ccc(CN3CCN(c4ccc(C(=O)NC)nc4C)CC3)cc2NC1=O` [Example 116], in that order: 10 to 100 nM, 1 to 10 nM and > 1000 nM.
For `CCn1c(=O)[nH]c2cc(CN3CCN(c4ccc(C(=O)NC)nc4F)CC3)c(F)cc2c1=O` [Example 14, 5-(4-((3-ethyl-6-fluoro-2,4-dioxo-1,2,3,4-tetrahydroquinazolin-7-yl)methyl)piperazin-1-yl)-6-fluoro-N-methylpicolinamide], in that order: 10 to 100 nM, 1 to 10 nM and 100 to 1000 nM.
As for `CCNC(=O)c1ccc(N2CCN(Cc3ccc4c(=O)n(CC)c(=O)[nH]c4c3)CC2)c(Cl)n1` [Example 83, 6-chloro-N-ethyl-5-(4-((3-ethyl-2,4-dioxo-1,2,3,4-tetrahydroquinazolin-7-yl)methyl)piperazin-1-yl)picolinamide], the IC50 in test [1] was 10 to 100 nM; in test [2] it was 1 to 10 nM; in test [3], 100 to 1000 nM.
`CCn1c(=O)[nH]c2cc(CN3CCN(c4ccc(C(=O)NC(C)C)nc4F)CC3)ccc2c1=O` [Example 34, 5-(4-((3-ethyl-2,4-dioxo-1,2,3,4-tetrahydroquinazolin-7-yl)methyl)piperazin-1-yl)-6-fluoro-N-isopropylpicolinamide]: the IC50 in test [1] fell in the range of 10 to 100 nM; in test [2] it was 1 to 10 nM; in test [3], 100 to 1000 nM.
As to `CNC(=O)c1ccc(N2CCN(Cc3ccc4c(=O)n(C)c(=O)[nH]c4c3)CC2)c(F)n1` [Example 17, 5-(4-((3-methyl-2,4-dioxo-1,2,3,4-tetrahydroquinazolin-7-yl)methyl)piperazin-1-yl)-6-fluoro-N-methylpicolinamide], the results for the IC50 in test [1], in test [2] and in test [3] were 10 to 100 nM, 1 to 10 nM and > 1000 nM, respectively.
Consider `CCN1Cc2ccc(CN3CCN(c4ccc(C(=O)NC)nc4)CC3)cc2NC1=O` [Example 15, 5-(4-((3-ethyl-2-oxo-1,2,3,4-tetrahydroquinazolin-7-yl)methyl)piperazin-1-yl)-N-methylpicolinamide], for which the IC50 is 100 to 1000 nM in test [1], 1 to 10 nM in test [2] and > 1000 nM in test [3].
Take `CCc1nc(C(=O)NC)ccc1N1CCN(Cc2ccc3c(=O)n(CC)c(=O)[nH]c3c2)CC1` [Example 31, 5-(4-((3-ethyl-2,4-dioxo-1,2,3,4-tetrahydroquinazolin-7-yl)methyl)piperazin-1-yl)-6-ethyl-N-methylpicolinamide]: the IC50 was 100 to 1000 nM in test [1], ≤ 1 nM in test [2] and > 1000 nM in test [3].
In the same order, the values of `CCn1c(=O)[nH]c2cc(CN3CCN(c4ccc(C(=O)NC)nc4Cl)CC3)cc(F)c2c1=O` [Example 62, 6-chloro-5-(4-((3-ethyl-5-fluoro-2,4-dioxo-1,2,3,4-tetrahydroquinazolin-7-yl)methyl)piperazin-1-yl)-N-methylpicolinamide] are 10 to 100 nM, 1 to 10 nM and 100 to 1000 nM.
For `CCCn1c(=O)[nH]c2cc(-c3cccc(C(=O)Nc4ccc(C(=O)NC)nc4)c3)ccc2c1=O` [Example 47, 5-(3-(3-propyl-2,4-dioxo-1,2,3,4-tetrahydroquinazolin-7-yl)benzamido)-N-methylpicolinamide], in that order: > 1000 nM, 10 to 100 nM and > 1000 nM.
In the same order, the values of `CCN1Cc2c(F)cc(CN3CCN(c4ccc(C(=O)NC)nc4C)CC3)cc2NC1=O` [Example 119, 5-(4-((3-ethyl-5-fluoro-2-oxo-1,2,3,4-tetrahydroquinazolin-7-yl)methyl)piperazin-1-yl)-N,6-dimethylpicolinamide] are 1 to 10 nM, 1 to 10 nM and > 1000 nM.
With `CCn1c(=O)[nH]c2cc(CN3CCN(c4ccc(C(=O)NC5CC5)nc4C)CC3)ccc2c1=O` [Example 78, N-cyclopropyl-5-(4-((3-ethyl-2,4-dioxo-1,2,3,4-tetrahydroquinazolin-7-yl)methyl)piperazin-1-yl)-6-methylpicolinamide], the IC50 in test [1] is 10 to 100 nM; in test [2] it was 1 to 10 nM; in test [3], > 1000 nM.
Regarding `CNC(=O)c1ccc(NC(=O)c2cccc(-c3ccc4c(=O)n(C(C)C)c(=O)[nH]c4c3)c2)cn1` [Example 42, 5-(3-(3-isopropyl-2,4 dioxo-1,2,3,4-tetrahydroquinazolin-7-yl)benzamido)-N-methylpicolinamide], the IC50 in test [1] was > 1000 nM; in test [2], 1 to 10 nM; in test [3], > 1000 nM.
For `CCn1c(=O)[nH]c2cc(CN3CCN(c4ccc(C(=O)NC)nc4Cl)CC3)ccc2c1=O` [Example 21, 5-(4-((3-ethyl-2,4-dioxo-1,2,3,4-tetrahydroquinazolin-7-yl)methyl)piperazin-1-yl)-6-chloro-N-methylpicolinamide], the values for the IC50 in test [1], in test [2] and in test [3] were 1 to 10 nM, ≤ 1 nM and 10 to 100 nM, respectively.
Consider `CCNC(=O)c1ccc(N2CCN(Cc3cc(F)c4c(=O)n(CC)c(=O)[nH]c4c3)CC2)c(Cl)n1` [Example 104, 6-chloro-N-ethyl-5-(4-((3-ethyl-5-fluoro-2,4-dioxo-1,2,3,4-tetrahydroquinazolin-7-yl)methyl)piperazin-1-yl)picolinamide], for which the values for the IC50 in test [1], in test [2] and in test [3] were 1 to 10 nM, 1 to 10 nM and > 1000 nM, respectively.
On to `CCn1c(=O)[nH]c2cc(CN3CCN(c4ccc(C(=O)NC5CC5)nc4F)CC3)ccc2c1=O` [Example 135, N-cyclopropyl-5-(4-((3-ethyl-2,4-dioxo-1,2,3,4-tetrahydroquinazolin-7-yl)methyl)piperazin-1-yl)-6-fluoropicolinamide], for which the IC50 was 1 to 10 nM in test [1], 1 to 10 nM in test [2] and 100 to 1000 nM in test [3].
Take `CCn1c(=O)[nH]c2cc(CN3CCN(c4ccc(C(=O)NC)nc4F)CC3)cc(F)c2c1=O` [Example 25, 5-(4-((3-ethyl-5-fluoro-2,4-dioxo-1,2,3,4-tetrahydroquinazolin-7-yl)methyl)piperazin-1-yl)-6-fluoro-N-methylpicolinamide]: the figures for the IC50 in test [1], in test [2] and in test [3] were 1 to 10 nM, 1 to 10 nM and 100 to 1000 nM, respectively.
Consider `CCn1c(=O)[nH]c2cc(CN3CCN(c4ncc(C(=O)NC)cn4)CC3)ccc2c1=O` [Example 30, 2-(4-((3-ethyl-2,4-dioxo-1,2,3,4-tetrahydroquinazolin-7-yl)methyl)piperazin-1-yl)-N-methylpyrimidine-5-carboxamide], for which the IC50 is > 1000 nM in test [1], 10 to 100 nM in test [2] and 10 to 100 nM in test [3].
On to `CCn1c(=O)[nH]c2c(F)c(CN3CCN(c4ccc(C(=O)NC)nc4F)CC3)ccc2c1=O` [Example 24, 5-(4-((3-ethyl-8-fluoro-2,4-dioxo-1,2,3,4-tetrahydroquinazolin-7-yl)methyl)piperazin-1-yl)-6-fluoro-N-methylpicolinamide], for which the values for the IC50 in test [1], in test [2] and in test [3] were 10 to 100 nM, 10 to 100 nM and > 1000 nM, respectively.
In the case of `CCNC(=O)c1ccc(N2CCN(Cc3ccc4c(=O)n(CC)c(=O)[nH]c4c3)CC2)c(C)n1` [Example 84, N-ethyl-5-(4-((3-ethyl-2,4-dioxo-1,2,3,4-tetrahydroquinazolin-7-yl)methyl)piperazin-1-yl)-6-methylpicolinamide], the values for the IC50 in test [1], in test [2] and in test [3] were 10 to 100 nM, 1 to 10 nM and > 1000 nM, respectively.
For `CCn1c(=O)[nH]c2cc(CN3CCN(c4ccc(C(=O)NC)nn4)CC3)ccc2c1=O` [Example 29, 6-(4-((3-ethyl-2,4-dioxo-1,2,3,4-tetrahydroquinazolin-7-yl)methyl)piperazin-1-yl)-N-methylpyridazine-3-carboxamide], in that order: > 1000 nM, 1 to 10 nM and 100 to 1000 nM.
For `CCNC(=O)c1ccc(N2CCN(Cc3cc(F)c4c(c3)NC(=O)N(CC)C4)CC2)c(Cl)n1` [Example 122, 6-chloro-N-ethyl-5-(4-((3-ethyl-5-fluoro-2-oxo-1,2,3,4-tetrahydroquinazolin-7-yl)methyl)piperazin-1-yl)picolinamide], the IC50 in test [1] fell in the range of 10 to 100 nM; in test [2], 1 to 10 nM.

(Values after US20240208969A1, “SUBSTITUTED FUSED BICYCLIC COMPOUNDS AS PARP INHIBITORS AND THE USE THEREOF” (IMPACT THERAPEUTICS (SHANGHAI), INC., priority 2021, published 2024).)
